Experiment [1] addresses Recombinant Human NF-kappaB-Inducing Kinase (NIK/MAP3K14) (Homo sapiens, UniProt Q99558). The experiment in a line: Inhibition of auto-phosphorylation of recombinant human NIK/MAP3K14 activity (AlphaScreen). It is filed as biochemical. The conditions noted are these: 5 μM ATP, 1 nM NIK, average if tested more than once. In outline:
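AlphaScreen detection of phospho-Ser176/180 after 1 nM GST-NIK auto-phosphorylates for 2 h at 25 °C with 5 μM ATP (50 mM Tris pH 7.5, 0.7% DMSO). IC50s come from sigmoidal curves of % inhibition against log dose, using enzyme-free, ATP-free low controls and full-activity high controls.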

The subject of experiment [2] is p-IKKa levels in L363 (NIK translocated multiple myeloma) cells. The experiment is described as follows: Effect of compounds on p-IKKa levels in L363 (NIK translocated multiple myeloma) cells (AlphaLISA SureFire Ultra p-IKKa Ser176/180). The conditions noted are these: Homo sapiens, L-363, p-IKKa levels in L363 cells; average if tested more than once; read-out: Assay 2 IC50. Format: cell-based, human. In a few lines: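 Phospho-IKKa (Ser176/180) in lysates quantified by AlphaLISA after 6 h compound exposure, 11-point threefold dilutions, 0.3% DMSO. L363 cells were pre-stimulated overnight and assayed with 250 ng/ml BAFF and 10 μM MG132; % inhibition fitted sigmoidally for IC50, duplicate curves.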
(In general: Bead proximity is the source of the signal in Alpha formats.)

Structures are written as SMILES. Where only a bound is given, the exact number is not on record here.

Recombinant Human NF-kappaB-Inducing Kinase (NIK/MAP3K14), sequence (Q99558 whole entry): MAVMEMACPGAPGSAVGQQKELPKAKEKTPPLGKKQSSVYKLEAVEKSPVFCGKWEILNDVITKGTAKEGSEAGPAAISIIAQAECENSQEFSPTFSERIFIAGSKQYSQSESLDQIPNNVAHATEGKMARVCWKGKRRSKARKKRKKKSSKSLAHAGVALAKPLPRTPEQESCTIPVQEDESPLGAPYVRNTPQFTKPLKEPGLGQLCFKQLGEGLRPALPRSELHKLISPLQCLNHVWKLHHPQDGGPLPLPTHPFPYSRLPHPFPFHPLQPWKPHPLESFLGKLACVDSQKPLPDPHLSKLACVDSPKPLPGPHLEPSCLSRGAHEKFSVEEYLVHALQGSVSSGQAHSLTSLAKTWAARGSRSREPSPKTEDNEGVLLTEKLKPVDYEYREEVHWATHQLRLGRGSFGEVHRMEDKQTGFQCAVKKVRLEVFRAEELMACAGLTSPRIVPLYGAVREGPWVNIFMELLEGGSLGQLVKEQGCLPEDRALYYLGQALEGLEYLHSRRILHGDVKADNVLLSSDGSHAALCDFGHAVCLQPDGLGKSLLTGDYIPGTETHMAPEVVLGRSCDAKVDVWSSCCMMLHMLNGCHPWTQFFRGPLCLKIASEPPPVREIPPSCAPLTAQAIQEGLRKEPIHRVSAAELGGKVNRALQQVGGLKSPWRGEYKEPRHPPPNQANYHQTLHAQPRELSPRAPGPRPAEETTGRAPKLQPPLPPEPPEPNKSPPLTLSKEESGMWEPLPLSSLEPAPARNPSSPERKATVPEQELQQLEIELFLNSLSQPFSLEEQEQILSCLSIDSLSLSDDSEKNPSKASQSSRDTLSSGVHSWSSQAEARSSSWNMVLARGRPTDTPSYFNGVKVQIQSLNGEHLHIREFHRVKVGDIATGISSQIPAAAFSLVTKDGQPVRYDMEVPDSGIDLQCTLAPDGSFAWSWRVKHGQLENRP

For `CC(C)n1nccc1Nc1nccc(-c2csc(-c3cccc([C@]4(O)CCN(C)C4=O)c3)n2)n1` [Example 66, (R)-3-hydroxy-3-(3-(4-(2-((1-isopropyl-1H-pyrazol-5-yl)amino)pyrimidin-4-yl)thiazol-2-yl)phenyl)-1-methylpyrrolidin-2-one], the results for the IC50 in experiment [1] and in experiment [2] were 100 to 500 nM and greater than 501 nM, respectively.
With `CCCn1ccc(Nc2nccc(-c3csc(-c4cccc([C@]5(O)CCN(C)C5=O)c4)n3)n2)n1` [Example 67, (R)-3-hydroxy-1-methyl-3-(3-(4-(2-((1-propyl-1H-pyrazol-3-yl)amino)pyrimidin-4-yl)thiazol-2-yl)phenyl)pyrrolidin-2-one], the IC50 (commonly the midpoint of a concentration-inhibition curve) in experiment [1] was less than 100 nM; in experiment [2], 100 to 500 nM.
The corresponding values for `CN1CC[C@@](O)(c2cccc(-c3nc(-c4ccnc(Nc5cccnc5)n4)cs3)c2)C1=O` [Example 68, (R)-3-hydroxy-1-methyl-3-(3-(4-(2-(pyridin-3-ylamino)pyrimidin-4-yl)thiazol-2-yl)phenyl)pyrrolidin-2-one] are greater than 501 nM and greater than 501 nM.
The corresponding values for `CN1CC[C@@](O)(c2cccc(-c3nc(-c4ccnc(Nc5nn(C)c6ccccc56)n4)cs3)c2)C1=O` [Example 69, (R)-3-hydroxy-1-methyl-3-(3-(4-(2-((1-methyl-1H-indazol-3-yl)amino)pyrimidin-4-yl)thiazol-2-yl)phenyl)pyrrolidin-2-one] are less than 100 nM and greater than 501 nM.
`CCc1cc(Nc2nccc(-c3csc(-c4cccc([C@]5(O)CCN(C)C5=O)c4)n3)n2)ncn1` [Example 70, (R)-3-(3-(4-(2-((6-ethylpyrimidin-4-yl)amino)pyrimidin-4-yl)thiazol-2-yl)phenyl)-3-hydroxy-1-methylpyrrolidin-2-one]: the results for the IC50 in experiment [1] and in experiment [2] were less than 100 nM and greater than 501 nM, respectively.
For `CN1CC[C@@](O)(c2cccc(-c3nc(-c4ccnc(Nc5cc6c(nn5)CCC6)n4)cs3)c2)C1=O` [Example 71, (R)-3-(3-(4-(2-((6,7-dihydro-5H-cyclopenta[c]pyridazin-3-yl)amino)pyrimidin-4-yl)thiazol-2-yl)phenyl)-3-hydroxy-1-methylpyrrolidin-2-one] the same measures were less than 100 nM and greater than 501 nM.
The corresponding values for `CN1CC[C@@](O)(c2cccc(-c3nc(-c4ccnc(Nc5cnn(CC6CCCO6)c5)n4)cs3)c2)C1=O` (stereo partly drawn) [Example 72, (R)-3-hydroxy-1-methyl-3-(3-(4-(2-((1-(((R,S)-tetrahydrofuran-2-yl)methyl)-1H-pyrazol-4-yl)amino)pyrimidin-4-yl)thiazol-2-yl)phenyl)pyrrolidin-2-one] are less than 100 nM and 100 to 500 nM.
Turning to `CN1CC[C@@](O)(c2cccc(-c3nc(-c4ccnc(Nc5cnn(C6CCC6)c5)n4)cs3)c2)C1=O` [Example 73, (R)-3-(3-(4-(2-((1-cyclobutyl-1H-pyrazol-4-yl)amino)pyrimidin-4-yl)thiazol-2-yl)phenyl)-3-hydroxy-1-methylpyrrolidin-2-one], the IC50 in experiment [1] was less than 100 nM; in experiment [2], 100 to 500 nM.
For the compound `COc1c(Nc2nccc(-c3csc(-c4cccc([C@]5(O)CCN(C)C5=O)c4)n3)n2)ccnc1C` [Example 74, (R)-3-hydroxy-3-(3-(4-(2-((3-methoxy-2-methylpyridin-4-yl)amino)pyrimidin-4-yl)thiazol-2-yl)phenyl)-1-methylpyrrolidin-2-one], the IC50 in experiment [1] is 100 to 500 nM; in experiment [2] it was greater than 501 nM.
Turning to `CN1CC[C@@](O)(c2cccc(-c3nc(-c4ccnc(Nc5ccn(CC(F)(F)F)n5)n4)cs3)c2)C1=O` [Example 75, (R)-3-hydroxy-1-methyl-3-(3-(4-(2-((1-(2,2,2-trifluoroethyl)-1H-pyrazol-3-yl)amino)pyrimidin-4-yl)thiazol-2-yl)phenyl)pyrrolidin-2-one], the IC50 was less than 100 nM in experiment [1] and 100 to 500 nM in experiment [2].
For the compound `CCn1ccc(Nc2nccc(-c3csc(-c4cccc([C@]5(O)CCN(C)C5=O)c4)n3)n2)n1` [Example 76, (R)-3-(3-(4-(2-((1-ethyl-1H-pyrazol-3-yl)amino)pyrimidin-4-yl)thiazol-2-yl)phenyl)-3-hydroxy-1-methylpyrrolidin-2-one], the IC50 in experiment [1] was less than 100 nM; in experiment [2], 100 to 500 nM.
For `CN1CC[C@@](O)(c2cccc(-c3nc(-c4ccnc(Nc5ccccn5)n4)cs3)c2)C1=O` [Example 77, (R)-3-hydroxy-1-methyl-3-(3-(4-(2-(pyridin-2-ylamino)pyrimidin-4-yl)thiazol-2-yl)phenyl)pyrrolidin-2-one] the same measures were less than 100 nM and greater than 501 nM.
For `CCOc1cn(C)nc1Nc1nccc(-c2csc(-c3cccc([C@]4(O)CCN(C)C4=O)c3)n2)n1` [Example 78, (R)-3-(3-(4-(2-((4-ethoxy-1-methyl-1H-pyrazol-3-yl)amino)pyrimidin-4-yl)thiazol-2-yl)phenyl)-3-hydroxy-1-methylpyrrolidin-2-one] the same measures were less than 100 nM and less than 100 nM.
Regarding `CN1CC[C@@](O)(c2cccc(-c3csc(-c4ccnc(Nc5cnn(C)c5)n4)n3)c2)C1=O` [Example 79, (R)-3-hydroxy-1-methyl-3-(3-(2-(2-((1-methyl-1H-pyrazol-4-yl)amino)pyrimidin-4-yl)thiazol-4-yl)phenyl)pyrrolidin-2-one], the 50% inhibitory concentration (IC50) in experiment [1] is less than 100 nM; in experiment [2] it was greater than 501 nM.
The corresponding values for `CN1CC[C@@](O)(c2cccc(-c3csc(-c4ccnc(Nc5cnn(CC(F)F)c5)n4)n3)c2)C1=O` [Example 80, (R)-3-(3-(2-(2-((1-(2,2-difluoroethyl)-1H-pyrazol-4-yl)amino)pyrimidin-4-yl)thiazol-4-yl)phenyl)-3-hydroxy-1-methylpyrrolidin-2-one] are less than 100 nM and less than 100 nM.
The corresponding values for `Cc1cc(Nc2nccc(-c3nc(-c4cccc([C@]5(O)CCN(C)C5=O)c4)cs3)n2)n(C)n1` [Example 81, (R)-3-(3-(2-(2-((1,3-dimethyl-1H-pyrazol-5-yl)amino)pyrimidin-4-yl)thiazol-4-yl)phenyl)-3-hydroxy-1-methylpyrrolidin-2-one] are 100 to 500 nM and greater than 501 nM.
For `CN1CC[C@@](O)(c2cccc(-c3csc(-c4ccnc(Nc5cnn6ccccc56)n4)n3)c2)C1=O` [Example 82, (R)-3-hydroxy-1-methyl-3-(3-(2-(2-(pyrazolo[1,5-a]pyridin-3-ylamino)pyrimidin-4-yl)thiazol-4-yl)phenyl)pyrrolidin-2-one] the same measures were less than 100 nM and less than 100 nM.
In the case of `CN1CC[C@@](O)(c2cccc(-c3csc(-c4ccnc(Nc5cnn(CCO)c5)n4)n3)c2)C1=O` [Example 83, (R)-3-hydroxy-3-(3-(2-(2-((1-(2-hydroxyethyl)-1H-pyrazol-4-yl)amino)pyrimidin-4-yl)thiazol-4-yl)phenyl)-1-methylpyrrolidin-2-one], the IC50 in experiment [1] is less than 100 nM; in experiment [2], greater than 501 nM.
For `COc1cc(Nc2nccc(-c3nc(-c4cccc([C@]5(O)CCN(C)C5=O)c4)cs3)n2)n(C)n1` [Example 84, (R)-3-hydroxy-3-(3-(2-(2-((3-methoxy-1-methyl-1H-pyrazol-5-yl)amino)pyrimidin-4-yl)thiazol-4-yl)phenyl)-1-methylpyrrolidin-2-one] the same measures were greater than 501 nM and greater than 501 nM.

The values above are taken from US20250304567A1, “PYRROLIDIONE DERIVATIVES AS INHIBITORS OF NF KAPPA B INDUCING KINASE” (priority 2022, published 2025).
